Measured values from article PMC8729770, “In Vitro Evaluation of Antimicrobial Peptides from the Black Soldier Fly (Hermetia Illucens) against a Selection of Human Pathogens” (Microbiology Spectrum, 2022).
Like-named read-outs stand apart in the source and are kept apart here. Ends that are not written are not given here.

Key:
[1] = system: S. aureus ATCC 6538; assay type: cell-based, Staphylococcus aureus; conditions: determined visually, 16 h
Description: (§1) To detect antimicrobial activity of the BSF AMPs, the peptide library underwent screening against a panel of microorganisms, consisting of S. aureus ATCC 6538, E. coli ATCC 8739, P. aeruginosa ATCC 9027, C. albicans B59630, and A. fumigatus B42928. Serial dilutions of the peptides were prepared from the DMSO stock solutions in sterile demineralized water in 96-well plates using an automated liquid-handling workstation (Beckman Coulter Biomek 3000) in end volumes of 10 μL. The final in-plate concentration of DMSO was <1%. Peptide concentrations ranged from 64 μM to 0.25 μM for the first evaluation, and from 32 μM to 0.016 μM for the independent repeat. As references, doxycycline (Sigma-Aldrich; S. aureus, E. coli, P. aeruginosa), flucytosine (Sigma-Aldrich; C. albicans), and econazole (Sigma-Aldrich; A. fumigatus) were used. Suspensions of a starting inoculum of 5 × 10^3 CFU/mL (E. coli, S. aureus, C. albicans, A. fumigatus) and 5 × 10^4 CFU/mL (P. aeruginosa) were prepared in MHB (bacterial species) or RPMI medium (fungal species) and 190 μL was added to the 96-well plates. Plates were incubated for 16 h (E. coli, S. aureus, P. aeruginosa), 24 h (C. albicans), or 48 h (A. fumigatus) at 37°C. After incubation, read-out of the antimicrobial activity was performed using a resazurin assay. Then, 20 μL of a 0.01% (wt/vol) resazurin (Sigma-Aldrich) solution was added to each well and plates were incubated for 15 min (S. aureus), 30 min (E. coli), 45 min (P. aeruginosa), 4 h (C. albicans), or 17 h (A. fumigatus) to allow resazurin reduction to take place. Fluorescence was read using a microplate reader (Telix) at λexcitation = 550 nm and λemission = 590. […] MIC values were determined visually. Medium in the wells with no visual growth was plated on MHA to detect the MBC, defined as ≥3 log reduction compared with the growth control.

[2] = system: E. coli ATCC 8739; assay type: cell-based, Escherichia coli; conditions: for MIC E. coli ATCC 8739: determined visually, 16 h
Description: as §1

[3] = system: P. aeruginosa ATCC 9027; assay type: cell-based, Pseudomonas aeruginosa
Description: as §1

[4] = repeat 1, plated on MHA, ≥3 log reduction vs growth control
[5] = repeat 2, plated on MHA, ≥3 log reduction vs growth control
[6] = repeat 2, 32-0.016 μM, determined visually, 16 h

Substance: GWWKRVFKPVEKLGQRVRDAGIQGLEIAQQGANVLATARGGPPQQ-NH2 [Hill-Cec3]
- MIC S. aureus ATCC 6538 ([1]; repeat 1, 64-0.25 μM): > 64.00 µM
- MIC S. aureus ATCC 6538 ([1]; repeat 2, 32-0.016 μM): > 32.00 µM
- MIC E. coli ATCC 8739 ([2]; repeat 1, 64-0.25 μM): 1.00 µM
- MBC E. coli ATCC 8739 [2, 4]: 1.00 µM
- MIC E. coli ATCC 8739 ([2]; repeat 2, 32-0.016 μM): 0.50 µM
- MBC E. coli ATCC 8739 [2, 5]: 32.00 µM
- MIC P. aeruginosa ATCC 9027 ([3]; repeat 1, 64-0.25 μM, determined visually, 16 h): 4.00 µM
- MBC P. aeruginosa ATCC 9027 [3, 4]: 16.00 µM
- MIC P. aeruginosa ATCC 9027 [3, 6]: 2.00 µM
- MBC P. aeruginosa ATCC 9027 [3, 5]: 2.00 µM

Substance: GWWKRVFKPVEKLGQRVRDAGIQGLEIAQQGANVLATVRGGPPQQ-NH2 [Hill-Cec9]
- MIC S. aureus ATCC 6538 ([1]; repeat 1, 64-0.25 μM): > 64.00 µM
- MIC S. aureus ATCC 6538 ([1]; repeat 2, 32-0.016 μM): > 32.00 µM
- MIC P. aeruginosa ATCC 9027 ([3]; ATCC 9027, 16 h): 1.00 µM
- MBC P. aeruginosa ATCC 9027 [3, 4]: static
- MIC P. aeruginosa ATCC 9027 [3, 6]: 2.00 µM
- MBC P. aeruginosa ATCC 9027 [3, 5]: 2.00 µM

Substance: SWFKKVFKPVEKVGQRVRDAGIQGVAIAQQGANVLATARGGPPH-NH2 [Hill-Cec5]
- MBC E. coli ATCC 8739 ([2]; ATCC 8739, 16 h): 0.50 µM
- MBC P. aeruginosa ATCC 9027 ([3]; ATCC 9027, 16 h): 32.00 µM

Substance: RSLWKKLFKPVERAGQRIRDATIKGIVIAQQGANVLATIRGGPAIPPGQ-NH2 [Hill-Cec12]
- MIC S. aureus ATCC 6538 ([1]; repeat 1, 64-0.25 μM): > 64.00 µM
- MIC S. aureus ATCC 6538 ([1]; repeat 2, 32-0.016 μM): > 32.00 µM
- MBC E. coli ATCC 8739 ([2]; ATCC 8739, 16 h): 1.00 µM
- MIC E. coli ATCC 8739 ([2]; repeat 1, 64-0.25 μM): 0.25 µM
- MIC E. coli ATCC 8739 ([2]; repeat 2, 32-0.016 μM): 2.00 µM
- MBC E. coli ATCC 8739 [2, 5]: 8.00 µM
- MIC P. aeruginosa ATCC 9027 ([3]; ATCC 9027, 16 h): 1.00 µM
- MBC P. aeruginosa ATCC 9027 [3, 4]: static
- MIC P. aeruginosa ATCC 9027 [3, 6]: 2.00 µM
- MBC P. aeruginosa ATCC 9027 [3, 5]: 8.00 µM

Substance: KSWWKKVFKPVERAGQRIRDASIKGLAVAQQGANVLSTIRGGPPVVAPPPQV-NH2 [Hill-Cec13]
- MIC S. aureus ATCC 6538 ([1]; repeat 1, 64-0.25 μM): > 64.00 µM
- MIC S. aureus ATCC 6538 ([1]; repeat 2, 32-0.016 μM): > 32.00 µM
- MIC P. aeruginosa ATCC 9027 ([3]; ATCC 9027, 16 h): 1.00 µM
- MBC P. aeruginosa ATCC 9027 [3, 4]: 64.00 µM
- MIC P. aeruginosa ATCC 9027 [3, 6]: 2.00 µM
- MBC P. aeruginosa ATCC 9027 [3, 5]: 2.00 µM
